Reference: patent US8946205B2, “1,2,4-triazolo[4,3-a]pyridine derivatives and their use as positive allosteric modulators of mGluR2 receptors” (Janssen Pharmaceuticals, Inc., priority 2009, dated 2015)
Where two headings read alike, the source gives them in different places.

Experiments:
human mGluR2 receptor = target: T1, human mGluR2 receptor (Homo sapiens, UniProt Q14416); test: [35S]GTPγS binding assay (PAM assay, membranes from CHO cells transfected with the human mGluR2 receptor); assay type: biochemical; conditions: in presence of glutamate at EC20; pEC50 = -log EC50 (mol/L); read-out: GTPγS-hR2 PAM pEC50 (converted)
T1 construct: expressed in transfected cells; host or cells: CHO cells (membranes)
T1 sequence (Q14416 19-872): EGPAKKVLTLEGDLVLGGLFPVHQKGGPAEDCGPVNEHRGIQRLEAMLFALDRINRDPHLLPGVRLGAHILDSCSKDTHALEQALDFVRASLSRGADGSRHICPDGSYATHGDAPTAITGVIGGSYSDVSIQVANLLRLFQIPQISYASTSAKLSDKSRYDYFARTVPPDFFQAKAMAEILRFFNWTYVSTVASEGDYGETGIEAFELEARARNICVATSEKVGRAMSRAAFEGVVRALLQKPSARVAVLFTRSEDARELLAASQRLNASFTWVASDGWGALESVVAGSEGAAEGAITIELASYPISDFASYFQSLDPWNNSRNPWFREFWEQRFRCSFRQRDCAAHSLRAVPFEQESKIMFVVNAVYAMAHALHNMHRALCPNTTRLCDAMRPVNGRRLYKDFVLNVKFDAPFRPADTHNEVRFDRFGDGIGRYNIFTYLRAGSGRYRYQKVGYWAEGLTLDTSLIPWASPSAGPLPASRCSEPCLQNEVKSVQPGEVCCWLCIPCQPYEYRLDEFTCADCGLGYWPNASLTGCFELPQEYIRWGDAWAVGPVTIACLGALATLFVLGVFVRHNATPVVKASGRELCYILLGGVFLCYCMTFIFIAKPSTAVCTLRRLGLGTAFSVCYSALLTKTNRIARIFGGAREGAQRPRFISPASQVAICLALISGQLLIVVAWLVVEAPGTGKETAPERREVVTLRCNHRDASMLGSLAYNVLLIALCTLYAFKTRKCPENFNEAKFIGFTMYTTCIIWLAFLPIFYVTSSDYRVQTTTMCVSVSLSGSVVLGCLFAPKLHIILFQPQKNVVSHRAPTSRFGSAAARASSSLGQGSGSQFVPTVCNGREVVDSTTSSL
Description: The [^35S]GTPγS binding assay is a functional membrane-based assay used to study G-protein coupled receptor (GPCR) function whereby incorporation of a non-hydrolysable form of GTP, [^35S]GTPγS (guanosine 5′-triphosphate, labelled with […] ^35S), is measured. The G-protein α subunit catalyzes the exchange of guanosine 5′-diphosphate (GDP) by guanosine triphosphate (GTP) and on activation of the GPCR by an agonist, [^35S]GTPγS, becomes incorporated and cannot be cleaved to continue the exchange cycle (Harper (1998) Current Protocols in Pharmacology 2.6.1-10, John Wiley & Sons, Inc.). […] Here we describe the use of the [^35S]GTPγS binding assay using membranes from cells transfected with the human mGluR2 receptor and adapted from Schaffhauser et al. ((2003) Molecular Pharmacology 4:798-810) for the detection of the positive allosteric modulation (PAM) properties of the compounds of this invention.
CHO-cells were cultured to pre-confluence and stimulated with 5 mM butyrate for 24 h, prior to washing in PBS, and then collected by scraping in homogenisation buffer (50 mM Tris-HCl buffer, pH 7.4, 4° C.). Cell lysates were homogenized briefly using an ultra-turrax homogenizer. The homogenate was centrifuged at 16,000 RPM (Sorvall RC-5C plus rotor SS-34) for 10 minutes and the supernatant discarded. The pellet was resuspended in 5 mM Tris-HCl, pH 7.4 and centrifuged again (18,000 RPM, 20 min, 4° C.). The final pellet was resuspended in 50 mM Tris-HCl, pH 7.4 and stored at −80° C. in appropriate aliquots before use. Protein concentration was determined by the Bradford method (Bio-Rad, USA) with bovine serum albumin as standard.
Measurement of mGluR2 positive allosteric modulatory activity of test compounds was performed as follows. Test compounds and glutamate were diluted in assay buffer containing 10 mM HEPES acid, 10 mM HEPES salt, pH 7.4, 100 mM NaCl, 3 mM MgCl2 and 10 μM GDP. Human mGlu2 receptor-containing membranes were thawed on ice and diluted in assay buffer supplemented with 14 μg/ml saponin. Membranes were pre-incubated with compound alone or together with a predefined (˜EC20) concentration of glutamate (PAM assay) for 30 min at 30° C. After addition of [^35S]GTPγS (f.c. 0.1 nM) microplates were shaken briefly and further incubated to allow [^35S]GTPγS incorporation on activation (30 minutes, 30° C.). Final assay mixtures contained 7 μg of membrane protein in 10 mM HEPES acid, 10 mM HEPES salt, pH 7.4, 100 mM NaCl, 3 mM MgCl2,10 μM GDP and 10 μg/ml saponin. Total reaction volume was 200 μl. Reactions were terminated by rapid filtration through Unifilter-96 GF/B filter plates (Packard, Meriden, Conn.) using a 96-well Packard filtermate harvester. Filters were washed 6 times with ice-cold 10 mM NaH2PO4/10 mM Na2HPO4, pH 7.4. Filters were then air-dried, and 40 μl of liquid scintillation cocktail (Microscint-O) was added to each well. Membrane-bound radioactivity was counted in a Microplate Scintillation and Luminescence Counter from Packard.
The concentration-response curves of representative compounds of the present invention—obtained in the presence of EC20 of mGluR2 agonist glutamate to determine positive allosteric modulation (PAM)—were generated using the Lexis software interface (developed at J&J). Data were calculated as % of the control glutamate response, defined as the maximal response that is generated upon addition of glutamate alone. Sigmoid concentration-response curves plotting these percentages versus the log concentration of the test compound were analyzed using non-linear regression analysis. The concentration producing half-maximal effect is then calculated as EC50. The pEC50 values below are calculated as the −log EC50 (wherein EC50 is expressed in mol/L). […]

male NMRI mice = test: Phencyclidine (PCP)-induced hyperlocomotion in mice (video tracking); assay type: in vivo; conditions: for ED50: Mus musculus, sc, PCP 5 mg/kg s.c., criterion total distance <5500 counts, read-out: ED50 PCP-Inh. (inhibition of PCP-induced hyperlocomotion)
Description: On the day of experiments, the mice were brought into the procedural room. They were housed individually and allowed to acclimate for at least a half hour prior to testing. Although the studies were conducted during the light cycle (from 8:00 to 16:00 h), the procedure room was only sparsely lit (3 to 30 LUX) to provide better contrast for the video tracking. Local lighting was used for the injection procedures. During each trial, an individual mouse was placed in an open field arena (grey PVC cylinder with a height of 40 cm and a diameter of 22.5 cm). Each arena was placed on an infrared LED (8×8 LEDs)-lit box (white PVC squared box; 40×40 cm^2; height 12.5 cm). Each mouse was placed in the center of the arena and allowed to explore freely for 30 min. After each trial, the arena was cleaned with a wet and subsequently with a dry cleaning cloth. An infrared sensitive tube camera and a white light source (in arena: 4-7 LUX) were mounted to the ceiling above the observation chamber to record and input activity to a computer. Animal behavior was recorded and analyzed using the Noldus Ethovision XT Video Tracking System (Version 3.1; Noldus, Wageningen, The Netherlands). The total distance traveled (cm) was calculated. Data were then exported to data management systems for further analysis and reporting. Phencyclidine (PCP)-Induced Hyperlocomotion in Mice Test compound or solvent was administered at a pre-defined time before measurement (standard: 30 min) to male NMRI mice that were challenged with phencyclidine (PCP; 5 mg/kg, s.c.) 30 min before measurement. Activity was measured for a period of 30 min. Criterion for drug-induced inhibition of hyperlocomotion: total distance<5500 counts (3.9% false positives in controls; n=154). Conditioned Avoidance Response (CAR) Test Apparatus The apparatus consisted of an inner box surrounded by an outer box. The inner box was composed of four walls of transparent, synthetic material (length×width×height: 30×30×30 cm), an open top, and a grid floor made of 15 pairs of iron bars (2 mm diameter; 6 mm inter-bar distance). Odd and even bars were connected with a source of alternative current (1.0 mA; Coulbourn Instruments Solid State Shocker/Distributor), which could be interrupted by a switch. The outer box was composed of the same material (length×width×height: 40×40×36 cm), also with an open top, with a distance of 5 cm between the inner and outer box on all sides. To decrease the amount of environmental stimuli, three walls of the outer box were made non-transparent. The front wall was left transparent to allow the necessary inspection of the animal during the test. The upper edge of the outer and inner box served as a target for the rats on which to jump with fore- and hind-paws, respectively. Avoidance Conditioning and Selection of Animals From their arrival in the laboratory on the experimental day, male Wiga Wistar rats (230±30 g) were housed in individual cages provided with bedding material. […] Experimental Sessions The rats were tested 3 times, i.e. at 60, 90 and 120 min after the injection of test compound or solvent. Latency to avoidance was recorded. The median avoidance response obtained over the three experimental sessions for each rat were used for further calculations. […] Sleep Wake Electroencephalography (SW-EEG) in Rats SW-EEG analyses are a highly sensitive read-out of a compound's central functional activity that may provide additional insight in the potential therapeutic application (i.e. via drug classification fingerprinting). […] Internal efforts have confirmed that this effect is mGlu2 receptor-mediated, i.e. is absent in mGlu2 KO mice. Sleep abnormalities are often associated with CNS disorders; as such, the potential use of mGlu2 modulators could also have benefit in the treatment of CNS disorders in which (REM) sleep aberrations are manifested. […]

male Wiga Wistar rats = test: Conditioned avoidance response (CAR) test in rats; assay type: in vivo; conditions: for ED50: Rattus norvegicus, criterion median avoidance latency >8 s
Description: On the day of experiments, the mice were brought into the procedural room. They were housed individually and allowed to acclimate for at least a half hour prior to testing. Although the studies were conducted during the light cycle (from 8:00 to 16:00 h), the procedure room was only sparsely lit (3 to 30 LUX) to provide better contrast for the video tracking. Local lighting was used for the injection procedures. During each trial, an individual mouse was placed in an open field arena (grey PVC cylinder with a height of 40 cm and a diameter of 22.5 cm). Each arena was placed on an infrared LED (8×8 LEDs)-lit box (white PVC squared box; 40×40 cm^2; height 12.5 cm). Each mouse was placed in the center of the arena and allowed to explore freely for 30 min. After each trial, the arena was cleaned with a wet and subsequently with a dry cleaning cloth. An infrared sensitive tube camera and a white light source (in arena: 4-7 LUX) were mounted to the ceiling above the observation chamber to record and input activity to a computer. Animal behavior was recorded and analyzed using the Noldus Ethovision XT Video Tracking System (Version 3.1; Noldus, Wageningen, The Netherlands). The total distance traveled (cm) was calculated. Data were then exported to data management systems for further analysis and reporting. Phencyclidine (PCP)-Induced Hyperlocomotion in Mice Test compound or solvent was administered at a pre-defined time before measurement (standard: 30 min) to male NMRI mice that were challenged with phencyclidine (PCP; 5 mg/kg, s.c.) 30 min before measurement. Activity was measured for a period of 30 min. Criterion for drug-induced inhibition of hyperlocomotion: total distance<5500 counts (3.9% false positives in controls; n=154). Conditioned Avoidance Response (CAR) Test Apparatus The apparatus consisted of an inner box surrounded by an outer box. The inner box was composed of four walls of transparent, synthetic material (length×width×height: 30×30×30 cm), an open top, and a grid floor made of 15 pairs of iron bars (2 mm diameter; 6 mm inter-bar distance). Odd and even bars were connected with a source of alternative current (1.0 mA; Coulbourn Instruments Solid State Shocker/Distributor), which could be interrupted by a switch. The outer box was composed of the same material (length×width×height: 40×40×36 cm), also with an open top, with a distance of 5 cm between the inner and outer box on all sides. To decrease the amount of environmental stimuli, three walls of the outer box were made non-transparent. The front wall was left transparent to allow the necessary inspection of the animal during the test. The upper edge of the outer and inner box served as a target for the rats on which to jump with fore- and hind-paws, respectively. Avoidance Conditioning and Selection of Animals From their arrival in the laboratory on the experimental day, male Wiga Wistar rats (230±30 g) were housed in individual cages provided with bedding material. […] Experimental Sessions The rats were tested 3 times, i.e. at 60, 90 and 120 min after the injection of test compound or solvent. Latency to avoidance was recorded. […] Sleep Wake Electroencephalography (SW-EEG) in Rats SW-EEG analyses are a highly sensitive read-out of a compound's central functional activity that may provide additional insight in the potential therapeutic application (i.e. via drug classification fingerprinting). […]

rats = test: Sleep wake electroencephalography (SW-EEG) in rats; assay type: in vivo
Description: On the day of experiments, the mice were brought into the procedural room. They were housed individually and allowed to acclimate for at least a half hour prior to testing. Although the studies were conducted during the light cycle (from 8:00 to 16:00 h), the procedure room was only sparsely lit (3 to 30 LUX) to provide better contrast for the video tracking. Local lighting was used for the injection procedures. During each trial, an individual mouse was placed in an open field arena (grey PVC cylinder with a height of 40 cm and a diameter of 22.5 cm). Each arena was placed on an infrared LED (8×8 LEDs)-lit box (white PVC squared box; 40×40 cm^2; height 12.5 cm). Each mouse was placed in the center of the arena and allowed to explore freely for 30 min. After each trial, the arena was cleaned with a wet and subsequently with a dry cleaning cloth. An infrared sensitive tube camera and a white light source (in arena: 4-7 LUX) were mounted to the ceiling above the observation chamber to record and input activity to a computer. Animal behavior was recorded and analyzed using the Noldus Ethovision XT Video Tracking System (Version 3.1; Noldus, Wageningen, The Netherlands). The total distance traveled (cm) was calculated. Data were then exported to data management systems for further analysis and reporting. Phencyclidine (PCP)-Induced Hyperlocomotion in Mice Test compound or solvent was administered at a pre-defined time before measurement (standard: 30 min) to male NMRI mice that were challenged with phencyclidine (PCP; 5 mg/kg, s.c.) 30 min before measurement. Activity was measured for a period of 30 min. Criterion for drug-induced inhibition of hyperlocomotion: total distance<5500 counts (3.9% false positives in controls; n=154). […] Latency to avoidance was recorded. […] Sleep Wake Electroencephalography (SW-EEG) in Rats SW-EEG analyses are a highly sensitive read-out of a compound's central functional activity that may provide additional insight in the potential therapeutic application (i.e. via drug classification fingerprinting). […]

[1] = po, compound administered orally (*), read-out: ED50 CAR-Inh. (inhibition of conditioned avoidance response), administered orally

EC50 (human mGluR2 receptor) [nM]	melting point [°C]	Structure (SMILES)	inhibition of PCP-induced hyperlocomotion (in words) (male NMRI mice)	ED50 (male NMRI mice) [mg/kg]	inhibition of the conditioned avoidance response (in words) (male Wiga Wistar rats)	ED50 (male Wiga Wistar rats; not marked as oral, read-out: ED50 CAR-Inh. (inhibition of conditioned avoidance response)) [mg/kg]	ED50 (male Wiga Wistar rats; [1]) [mg/kg]	effect on REM sleep (rats; oral administration)	lowest active dose for decrease of REM sleep (rats; p.o.) [mg/kg]	effect on REM sleep (rats; 3 mg/kg, p.o.)
11.2	206.9	O[C@H]1CC[C@H](n2ccc3cc(-c4ccn5c(CC6CC6)nnc5c4C(F)(F)F)ccc32)CC1 [Compound 4]	inhibited	13.2	inhibited	20	≥ 40			
79.4		Clc1c(-c2ccc3c(ccn3-c3cccnc3)c2)ccn2c(CC3CC3)nnc12 [Compound 17, 8-Chloro-3-cyclopropylmethyl-7-[1-(pyridin-3-yl)-1H-indol-5-yl]-[1,2,4]triazolo[4,3-a]pyridine]	inhibited	10.7	inhibited		20	dose-dependently decrease REM sleep	10	
22.9	243.8	Cc1ccc(-n2ccc3cc(-c4ccn5c(CC6CC6)nnc5c4Cl)cc(F)c32)cn1 [Compound 31]	inhibited	7.1						
		N[C@@]1(C(=O)O)CS(=O)(=O)[C@H]2[C@H](C(=O)O)[C@H]21 [LY404039, reference compound]								affect REM sleep
